Assay results as given in patent publication US9643999B2 (Bristol-Myers Squibb Company, priority 2012, dated 2017).

Tests used:
[1] = test system: HCV genotype 1a replicon; experiment: HCV replicon luciferase reporter assay, genotype 1a (LE_1a); format: cell-based; conditions: Hepatitis C virus, 72 h; HUH-7 cells, genotype 1a H77 replicon, 3 days incubation, Renilla luciferase; read-out: LE_1a (EC50, range)
Text: (§1) An HCV replicon whole cell system was established as described by Lohmann V, Korner F, Koch J, Herian U, Theilmann L, Bartenschlager R., Science 285(5424):110-3 (1999) and modified to introduce a luciferase reporter, as first described by Krieger et al (Krieger N, Lohmann V, and Bartenschlager R, J. Virol. 75(10):4614-4624 (2001)). cDNA encoding a humanized form of the Renilla luciferase gene and a linker sequence fused directly to the 3′-end of the luciferase gene were introduced into the replicon construct using an Asc1 restriction site located in core, directly upstream of the neomycin marker gene. The adaptive mutation at position 1179 (serine to isoleucine) was also introduced (Blight K J, Kolykhalov, A A, Rice, C M, Science 290(5498):1972-1974). A stable cell line constitutively expressing this HCV replicon construct was generated by first linearizing plasmid DNAs with ScaI. RNA transcripts were synthesized in vitro using the T7 MegaScript transcription kit (Ambion, Austin, Tex.) according to manufacturer's directions. In vitro transcripts of the cDNA were transfected into the human hepatoma cell line, HUH-7. […] Resulting cell lines were characterized for positive and negative strand RNA production and protein production over time.
A stable HCV replicon luciferase reporter cell line representing the genotype 1a H77 strain (Yanagi M, Purcell R H, Emerson S U, et al. Transcripts from a single full-length cDNA clone of hepatitis C virus are infectious when directly transfected into the liver of a chimpanzee. Proc Natl Acad Sci USA 1997; 94(16):8738-8743) was generated as described previously for the genotype 1b(Con1) replicon luciferase cell line. The replicon construct was modified by introducing mutations were introduced into the genes encoding the NS3 helicase domain (proline replaced by leucine at position 1496) and NS5A (serine to isoleucine at position 2204) to improve replication in cell culture.
(§2) HCV replicon luciferase assays were developed to monitor the inhibitory effects of compounds described in the disclosure on HCV genotypes 1a and 1b viral replication. HUH-7 cells, constitutively expressing the HCV replicon, were grown in Dulbecco's Modified Eagle Media (DMEM) (Gibco-BRL) containing 10% Fetal calf serum (FCS) (Sigma) and 1 mg/mL G418 (Gibco-BRL). Compounds were serially diluted 3 folds in DMSO for a twenty-point titration and subsequently transferred to sterile 384-well tissue-culture treated plates (Corning cat #3571). The plates were then seeded with 50 μL of cells at a density of 3.0×10^3 cells/well in DMEM containing 4% FCS (final DMSO concentration at 0.5%). After 3 days incubation at 37° C., cells were analyzed for Renilla Luciferase activity using the EnduRen as substrate (Promega cat #E6485). The EnduRen substrate was diluted in DMEM and then added to the plates to a final concentration of 7.5 μM. The plates were incubated for 2 hrs at 37° C. and then read immediately for 30 seconds with Viewlux Imager (PerkinElmer) using a luminescence program. To assess cytotoxicity of compounds, CC50 values were generated by multiplexing the EnduRen-containing plates with Cell Titer-Blue (Promega, cat #G8082). Cell-Titer Blue (3 μL) was added to each well and incubated for 8 hrs at 37° C. The fluorescence signal from each well was read, with an excitation wavelength at 525/10 nm and an emission wavelength of 598/10 nm, using the Viewlux Imager.
(§3) The EC50 values for compounds were calculated by using a four-parameter logistic equation: y=A+((B−A)/(1+((C/x)^D))), where A and B denotes minimal and maximal % inhibition, respectively, C is the EC50, D is the hill slope and x represents compound concentration.

[2] = test system: HCV genotype 1b replicon; experiment: HCV replicon luciferase reporter assay, genotype 1b (LE_1b); format: cell-based; conditions: Hepatitis C virus, 72 h; HUH-7 cells, genotype 1b (Con1) replicon, 3 days incubation, Renilla luciferase; read-out: LE_1b (EC50, range)
Text: as §1, with “time. […]” for “time.”
as §2, §3

CC[C@@H]1C[C@H](C)CC/C=C\[C@@H]2C[C@@]2(C(=O)NS(=O)(=O)C2(C)CC2)NC(=O)[C@@H]2C[C@@H](Oc3ncc(N(C)C(=O)c4ccccc4)c4cc(OC)ccc34)CN2C(=O)[C@H]1NC(=O)OC(C)(C)C(F)(F)F [Compound 4248] was tested, and the EC50 [1] was 1.01 to 5 nM and the EC50 [2] was 1.01 to 5 nM.

With CC[C@@H]1C[C@H](C)CC/C=C\[C@@H]2C[C@@]2(C(=O)NS(=O)(=O)C2(C)CC2)NC(=O)[C@@H]2C[C@@H](Oc3ncc(-c4nccs4)c4cc(OC)ccc34)CN2C(=O)[C@H]1NC(=O)OC(C)(C)C [Compound 4255, tert-butyl((2R,6S,7R,9R,13aS,14aR,16aS,Z)-7-ethyl-2-((6-methoxy-4-(thiazol-2-yl)isoquinolin-1-yl)oxy)-9-methyl-14a-(((1-methylcyclopropyl)sulfonyl)carbamoyl)-5,16-dioxo-1,2,3,5,6,7,8,9,10,11,13a,14,14a,15,16,16a-hexadecahydrocyclopropa[e]pyrrolo[1,2-a][1,4]diazacyclopentadecin-6-yl)carbamate] the EC50 [1] was 1.01 to 5 nM and the EC50 [2] was 0.51 to 1 nM.

CC[C@@H]1C[C@H](C)CC/C=C\[C@@H]2C[C@@]2(C(=O)NS(=O)(=O)C2(C)CC2)NC(=O)[C@@H]2C[C@@H](Oc3ncc(-c4nccs4)c4cc(OC)ccc34)CN2C(=O)[C@H]1NC(=O)OC(C)(C)C(F)(F)F [Compound 4258] was tested, and the EC50 [1] was 1.01 to 5 nM and the EC50 [2] was 1.01 to 5 nM.

CC[C@@H]1C[C@H](C)CC/C=C\[C@@H]2C[C@@]2(C(=O)NS(=O)(=O)C2(C)CC2)NC(=O)[C@@H]2C[C@@H](Oc3ncc(N(CC)C(=O)c4ccccc4)c4cc(OC)ccc34)CN2C(=O)[C@H]1NC(=O)OC(C)(C)C(F)(F)F [Compound 4264] showed an EC50 [1] of 1.01 to 5 nM and an EC50 [2] of 1.01 to 5 nM.

In the case of CC[C@@H]1C[C@H](C)CC/C=C\[C@@H]2C[C@@]2(C(=O)NS(=O)(=O)C2(C)CC2)NC(=O)[C@@H]2C[C@@H](Oc3ncc(-c4nc(C(C)(C)C)cs4)c4cc(OC)ccc34)CN2C(=O)[C@H]1NC(=O)OC(C)(C)C [Compound 4274, tert-butyl((2R,6S,7R,9R,13aS,14aR,16aS,Z)-2-((4-(4-(tert-butyl)thiazol-2-yl)-6-methoxyisoquinolin-1-yl)oxy)-7-ethyl-9-methyl-14a-(((1-methylcyclopropyl)sulfonyl)carbamoyl)-5,16-dioxo-1,2,3,5,6,7,8,9,10,11,13a,14,14a,15,16,16a-hexadecahydrocyclopropa[e]pyrrolo[1,2-a][1,4]diazacyclopentadecin-6-yl)carbamate], the EC50 [1] is reported as 5.01 to 35 nM and the EC50 [2] is reported as 1.01 to 5 nM.

CC[C@@H]1C[C@H](C)CC/C=C\[C@@H]2C[C@@]2(C(=O)NS(=O)(=O)C2(C)CC2)NC(=O)[C@@H]2C[C@@H](Oc3ncc(-c4nc(C(C)(C)C)cs4)c4cc(OC)ccc34)CN2C(=O)[C@H]1NC(=O)OC(C)(C)C(F)(F)F [Compound 4275] gave an EC50 [1] of 5.01 to 35 nM and an EC50 [2] of 5.01 to 35 nM.

CC[C@@H]1C[C@H](C)CC/C=C\[C@@H]2C[C@@]2(C(=O)NS(=O)(=O)C2CC2)NC(=O)[C@@H]2C[C@@H](Oc3ncc(-c4nc(C(C)(C)C)cs4)c4cc(OC)ccc34)CN2C(=O)[C@H]1NC(=O)OC(C)(C)C [Compound 4280, tert-butyl((2R,6S,7R,9R,13aS,14aR,16aS,Z)-2-((4-(4-(tert-butyl)thiazol-2-yl)-6-methoxyisoquinolin-1-yl)oxy)-14a-((cyclopropylsulfonyl)carbamoyl)-7-ethyl-9-methyl-5,16-dioxo-1,2,3,5,6,7,8,9,10,11,13a,14,14a,15,16,16a-hexadecahydrocyclopropa[e]pyrrolo[1,2-a][1,4]diazacyclopentadecin-6-yl)carbamate] gave an EC50 [1] of 5.01 to 35 nM and an EC50 [2] of 1.01 to 5 nM.

Compound CC[C@@H]1C[C@H](C)CC/C=C\[C@@H]2C[C@@]2(C(=O)NS(=O)(=O)C2(C)CC2)NC(=O)[C@@H]2C[C@@H](Oc3cc(-n4ccnc4)nc4cc(OC)ccc34)CN2C(=O)[C@H]1NC(=O)OC(C)(C)C(F)(F)F [Compound 4281] has an EC50 [1] of 5.01 to 35 nM and an EC50 [2] of 5.01 to 35 nM.

CC[C@@H]1C[C@H](C)CC/C=C\[C@@H]2C[C@@]2(C(=O)NS(=O)(=O)C2(C)CC2)NC(=O)[C@@H]2C[C@@H](Oc3cc(-n4ccnc4)c4ccc(OC)cc4n3)CN2C(=O)[C@H]1NC(=O)OC(C)(C)C(F)(F)F [Compound 4282] gave an EC50 [1] of 5.01 to 35 nM and an EC50 [2] of 1.01 to 5 nM.

Work on CC[C@@H]1C[C@H](C)CC/C=C\[C@@H]2C[C@@]2(C(=O)NS(=O)(=O)C2(C)CC2)NC(=O)[C@@H]2C[C@@H](Oc3ncc(-c4cnco4)c4cc(OC)ccc34)CN2C(=O)[C@H]1NC(=O)OC(C)(C)C [Compound 4285, tert-butyl((2R,6S,7R,9R,13aS,14aR,16aS,Z)-7-ethyl-2-((6-methoxy-4-(oxazol-5-yl)isoquinolin-1-yl)oxy)-9-methyl-14a-(((1-methylcyclopropyl)sulfonyl)carbamoyl)-5,16-dioxo-1,2,3,5,6,7,8,9,10,11,13a,14,14a,15,16,16a-hexadecahydrocyclopropa[e]pyrrolo[1,2-a][1,4]diazacyclopentadecin-6-yl)carbamate] yielded an EC50 [1] of 1.01 to 5 nM and an EC50 [2] of 1.01 to 5 nM.

CC[C@@H]1C[C@H](C)CC/C=C\[C@@H]2C[C@@]2(C(=O)NS(=O)(=O)C2CC2)NC(=O)[C@@H]2C[C@@H](Oc3ncc(C(=O)OC)c4cc(OC)ccc34)CN2C(=O)[C@H]1NC(=O)OC(C)(C)C(F)(F)F [Compound 4286, methyl 1-(((2R,6S,7R,9R,13aS,14aR,16aS,Z)-14a-((cyclopropylsulfonyl)carbamoyl)-7-ethyl-9-methyl-5,16-dioxo-6-((((1,1,1-trifluoro-2-methylpropan-2-yl)oxy)carbonyl)amino)-1,2,3,5,6,7,8,9,10,11,13a,14,14a,15,16,16a-hexadecahydrocyclopropa[e]pyrrolo[1,2-a][1,4]diazacyclopentadecin-2-yl)oxy)-6-methoxyisoquinoline-4-carboxylate] gave an EC50 [1] of 1.01 to 5 nM and an EC50 [2] of 0.51 to 1 nM.

CC[C@@H]1C[C@H](C)CC/C=C\[C@@H]2C[C@@]2(C(=O)NS(=O)(=O)C2(C)CC2)NC(=O)[C@@H]2C[C@@H](Oc3ncc(C(=O)OC)c4cc(OC)ccc34)CN2C(=O)[C@H]1NC(=O)OC(C)(C)C(F)(F)F [Compound 4287] gave an EC50 [1] of 1.01 to 5 nM and an EC50 [2] of 1.01 to 5 nM.

CC[C@@H]1C[C@H](C)CC/C=C\[C@@H]2C[C@@]2(C(=O)NS(=O)(=O)C2CC2)NC(=O)[C@@H]2C[C@@H](Oc3ncc(-c4nc(C(C)(C)C)cs4)c4cc(OC)ccc34)CN2C(=O)[C@H]1NC(=O)OC(C)(C)C(F)(F)F [Compound 4288] gave an EC50 [1] of 5.01 to 35 nM and an EC50 [2] of 5.01 to 35 nM.

CC[C@@H]1C[C@H](C)CC/C=C\[C@@H]2C[C@@]2(C(=O)NS(=O)(=O)C2(C)CC2)NC(=O)[C@@H]2C[C@@H](Oc3ncc(-c4cnco4)c4cc(OC)ccc34)CN2C(=O)[C@H]1NC(=O)OC(C)(C)C(F)(F)F [Compound 4291] showed an EC50 [1] of 1.01 to 5 nM and an EC50 [2] of 0.51 to 1 nM.

In the case of CC[C@@H]1C[C@H](C)CC/C=C\[C@@H]2C[C@@]2(C(=O)NS(=O)(=O)C2CC2)NC(=O)[C@@H]2C[C@@H](Oc3ncc(-c4cnco4)c4cc(OC)ccc34)CN2C(=O)[C@H]1NC(=O)OC(C)(C)C(F)(F)F [Compound 4293], the EC50 [1] is reported as 1.01 to 5 nM and the EC50 [2] is reported as 0.51 to 1 nM.
